# Results from patent US20250295627A1 (Leibniz-Institut Fuer Neurobiologie, priority 2022, published 2025).
# Read-outs that look alike come from different tables or passages of the source.
# Legend:
# [1] = tested on: hippocampal primary neurons; assay: Whole-cell voltage-clamp recording of mEPSCs; format: cell-based, rat
# [2] = format: in vivo, mouse; conditions: 50 mg/kg daily oral, treated versus control animals
# Text: (§1) . For TBA2.1 mice (both sexes), treatment started at the age of 4 weeks. The animals were group housed and force fed for 4 weeks. […] Treatment in 5×FAD male mice started at the age of 12 weeks. Here, animals were single housed right away and given a choice between voluntary and forced feeding. […] During the course of the 7th week of treatment, animals were either subjected to perfusion to obtain their brains for subsequent immunohistochemistry or they were culled to obtained native brains for electrophysiological recordings.
# [3] = tested on: pCREB; assay: Aβ-induced CREB shutoff (nuclear pCREB) in hippocampal primary neurons; format: cell-based, rat
# Protocol: (§2) Hippocampal and cortical cultures were prepared from Wistar rat embryos (E18) of mixed sex as described previously (Spilker et al., 2016). Briefly, dissected were digested for 15 min with trypsin at 37° C. Neurons were plated on plastic 12-well dishes (Greiner) on glass coverslips coated with poly-L-lysine (Sigma-Aldrich) at a density of 60 000 cells/well in DMEM medium (Gibco, Thermo Fisher Scientific) supplemented with 10% FCS, 1× penicillin/streptomycin, and 2 mM glutamine. After 1 h incubation (at the 37° C., 5% CO2, 95% humidity) cells were kept in BrainPhys medium supplemented with 1% SM1 (Stemmcell Technologies), 0.5 mM Glutamine (Gibco) at 37° C., 5% CO2 and 95% humidity. […]
# (§3) For quantitation of nuclear staining intensity (pCREB or CREB) somatic regions were sequentially scanned using the 63× objective (Leica) in both: Leica TCS SP8-STED and Leica TCS SP5 systems. […] Unprocessed images were analysed using Fiji/ImageJ software (Schindelin et al., 2012). For visualization of the quantified channel a fire look-up table (LUT) was used. Synaptic density was quantified in secondary dendrites using Fiji/ImageJ (Schindelin et al., 2012). […] Intensity of the GluA1 channel was measured in ROIs defined by a Shank3 mask as a readout for surface AMPAR expression.
# [4] = tested on: TBA2.1 and 5×FAD mice; assay: Amyloid load (amyloid-β positive puncta) in CA1 after oral Nitarsone; format: in vivo, mouse
# Protocol: Animals were anesthetized with ketamine/xylazine (Medistar) and transcardially perfused with 0.9% saline followed by 4% PFA. The brains were post-fixed in 4% PFA in PBS overnight, followed by immersion in 0.5 M sucrose for 24 h and then 1M sucrose for another 1 to 2 days or until the brains were sunken down. The brains were snap-frozen and cut into 35 μm thick coronal cryosections (Leica CM3050S, Leica-Microsystems). The sections were blocked in a buffer (0.3% TX-100, 10% NGS in PBS) for 30 min at RT, and incubated with primary antibodies diluted in the blocking solution, overnight at 4° C. Secondary antibodies were applied for 2 h at RT. Sections were counterstained with DAPI and mounted in Mowiol 4-88 (Merck Chemicals). For the detection of Aβ, the heat-based antigen retrieval method was used. […]
# All quantifications were done within the distal CA1 region of the hippocampus. […] CREB and pCREB immunoreactivity of every single nucleus in a 100 μm stretch was measured in arbitrary units of pixel intensity. […] The neuronal loss was quantified based on NeuN staining (the number of neurons/CA1 length). For the quantification of microglia and astrocytes the number of cells based on overlaid DAPI and Iba-1 or GFAP signal was quantified within the rectangular ROI. Aβ plaques were counted in the region where the neuronal loss was quantified.
# [5] = tested on: CREB; format: in vivo, mouse; conditions: for CREB shutoff in dorsal hippocampal CA1: 50 mg/kg daily oral, 6 weeks
# Protocol: Animals were anesthetized with ketamine/xylazine (Medistar) and transcardially perfused with 0.9% saline followed by 4% PFA. The brains were post-fixed in 4% PFA in PBS overnight, followed by immersion in 0.5 M sucrose for 24 h and then 1M sucrose for another 1 to 2 days or until the brains were sunken down. The brains were snap-frozen and cut into 35 μm thick coronal cryosections (Leica CM3050S, Leica-Microsystems). The sections were blocked in a buffer (0.3% TX-100, 10% NGS in PBS) for 30 min at RT, and incubated with primary antibodies diluted in the blocking solution, overnight at 4° C. Secondary antibodies were applied for 2 h at RT. Sections were counterstained with DAPI and mounted in Mowiol 4-88 (Merck Chemicals). For the detection of Aβ, the heat-based antigen retrieval method was used. For anti-Aβ staining, following permeabilization, brain sections were immersed into […] sodium citrate solution (Fluka, pH=9) for 30 min at 80° C. Imaging of nuclear pCREB/CREB immunoreactivities in cryosections was performed using a Leica TCS SP5 system (Leica-Microsystems). Images were acquired sequentially with a HCX ApoL20×/1.0 water objective, optical zoom 4. Sections were imaged with constant laser/detector settings along the z-axis with 400 nm step in a 512×512 pixel format.
# as §1
# All quantifications were done within the distal CA1 region of the hippocampus. Fiji/ImageJ software (Schindelin et al., 2012) was used to calculate maximum intensity projection from five optical sections for each channel. CREB and pCREB immunoreactivity of every single nucleus in a 100 μm stretch was measured in arbitrary units of pixel intensity. ROls were defined based on NeuN and DAPI. The neuronal loss was quantified based on NeuN staining (the number of neurons/CA1 length). For the quantification of microglia and astrocytes the number of cells based on overlaid DAPI and Iba-1 or GFAP signal was quantified within the rectangular ROI. Aβ plaques were counted in the region where the neuronal loss was quantified.
# [6] = tested on: hippocampal neurons; assay: Aβ-induced synapse loss (synaptophysin/Shank3 puncta) in dissociated hippocampal neurons; format: cell-based, rat; conditions: 5 μM Nitarsone, 48 h, 500 nM Aβ1-42
# Protocol: as §2, §3
# [7] = tested on: TBA2.1 and 5×FAD mice; assay: Y-maze object recognition short-term memory task; format: in vivo, mouse; conditions: 3 h between training and test, versus vehicle
# Text: as §1
# Y-maze Object Recognition short-term memory task was performed according to (Creighton et al., 2019). During training session, two identical objects (3D printed rectangle) were placed at the end of arms B and C and the animal was left to explore both objects for 10 min. In order to assess short-term memory, retrieval performance was tested 3 h after training with one of the familiar objects replaced by a novel one (wooden cube). The mice were placed in the arena, and had 5 min to explore both objects. During both sessions the time animals explored the objects was scored, and a discrimination index was calculated, in the same manner as for the novel object recognition test.
smiles,measurement,setting,value
"O=[N+]([O-])c1ccc([As](=O)(O)O)cc1 [Nitarsone, (4-nitrophenyl) arsonic acid]",mEPSC amplitude,"[1]; co-application of 5 µM Nitarsone with 500 nM Aβ1-42, 48 h",restored mEPSC amplitude
same,mEPSC amplitude and frequency,"[1]; drug alone, 5 µM, 48 h",no effect on both measures
same,body weight,[2],no effect on the body weight
same,CREB shutoff induced by Aβ oligomers for 48 h,"[3]; 5 µM co-application, 500 nM Aβ oligomers, 48 h",rescued CREB shutoff
same,acute Aβ-induced CREB shutoff,"[3]; 10 μM bath application, 30 min prior or 2 h after 500 nM Aβ for 2 h",prevented acute Aβ-induced CREB shutoff
same,amyloid load,[4]; 5×FAD mice,did not detect any effects
same,amyloid load,[4]; TBA2.1 mice,did not detect any effects
same,CREB shutoff in dorsal hippocampal CA1,[5]; 5×FAD mice,effectively prevented CREB shutoff
same,CREB immunoreactivity in NeuN positive cells in CA1,"[5]; 5×FAD mice, 18 weeks old",rescues the reduction of CREB immunoreactivity
same,CREB shutoff in dorsal hippocampal CA1,[5]; TBA2.1 mice,effectively prevented CREB shutoff
same,CREB immunoreactivity in NeuN positive cells in CA1,"[5]; TBA2.1 mice, 11 weeks old",rescues the reduction of CREB immunoreactivity
same,Aβ-induced synapse loss,[6],completely prevented
same,"discrimination performance, Y-maze object recognition",[7]; 5×FAD mice,improved discrimination performance
same,"discrimination performance, Y-maze object recognition",[7]; TBA2.1 mice,improved discrimination performance
